Test results reported in patent US20200308144A1, “Multimeric piperidine derivatives” (Bellicum Pharmaceuticals, Inc., priority 2017, published 2020).
Like-named read-outs stand apart in the source and are kept apart here.

Tests used:
[1] = cited from earlier work
[2] = test system: cells; conditions: cited from earlier work
[3] = test system: cells; assay: AP1903 amount needed in vitro for effective signaling of cells; format: cell-based; conditions: converted with 1600 Da
Protocol: The fixed dose of AP1903 for injection used, for example, may be 0.4 mg/kg intravenously infused over 2 hours. The amount of AP1903 needed in vitro for effective signaling of cells is 10-100 nM (1600 Da MVV). This equates to 16-160 μg/L or ˜[…] (1.6-160 μg/kg). Doses up to 1 mg/kg were well-tolerated in the Phase 1 study of AP1903 discussed above. Therefore, 0.4 mg/kg may be a safe and effective dose of AP1903 for this Phase I study in combination with the therapeutic cells.

[4] = cited from earlier work; remark: listed apart in the source
[5] = Solubility in water and buffers; format: physicochemical; conditions: buffer system None (unbuffered water)
Description: By “soluble” or “solubility” is meant the property of a compound to dissolve in water, buffer, or other liquid, which may be measured in terms of mg·mL^−1. […] Examples of pharmaceutically acceptable buffers include those provided in Remington: The Science and Practice of Pharmacy, 22 ed., 2013, Pharmaceutical Press, London (Allen, L. V., Jr., ed.). […] Methods for evaluating the solubility of a compound include, for example, a 96-well plate-based assay in which aqueous suspensions of the compound are vacuum-filtered and the concentration of compound is measured by UV spectrophotometry (Roy et al (2001) Drug Dev Ind Pharm 27(1):107-109).

[6] = Stability of salt forms under accelerated conditions of heat and humidity; format: physicochemical
Protocol: The stability of different salt forms of Compound A was assayed under accelerated conditions of heat and humidity for 7 and for 14 days. All salts were […] up to 40° C. and 75% relative humidity (RH), but appeared to degrade under severe temperature and humidity conditions of 80° C. with or without 80% relative humidity. (Table 3)

| SMILES | plasma levels versus dose ([1]; 0.01-1.0 mg/kg IV over 2 hours) | plasma level as % of maximal concentration ([1]; 0.5 hours post-dose) | plasma level as % of maximal concentration ([1]; 2 hours post-dose) | plasma level as % of maximal concentration ([1]; 10 hours post-dose) | well-tolerated doses ([1]; Phase 1 study) | mean Cmax ([1]; healthy volunteers, single doses 0.01-1.0 mg/kg infused IV over 2 hours) | amount needed in vitro for effective signaling of cells [2] | amount needed in vitro for effective signaling of cells, converted [3] | solubility in water [4] | Inherent pH in parenthesis [5] | Assay (%) ([6]; 25° C./60% RH, 7 D) | Assay (%) ([6]; 25° C./60% RH, 14 D) | Assay (%) ([6]; 40° C./75% RH, 7 D) | Assay (%) ([6]; 40° C./75% RH, 14 D) | Assay (%) ([6]; 80° C., 7 D) | Assay (%) ([6]; 80° C., 14 D) | Assay (%) ([6]; 80° C./80% RH, 7 D) | Assay (%) ([6]; 80° C./80% RH, 14 D) |
| --- | --- | --- | --- | --- | --- | --- | --- | --- | --- | --- | --- | --- | --- | --- | --- | --- | --- | --- |
| CC[C@H](C(=O)N1CCCC[C@H]1C(=O)O[C@H](CCc1ccc(OC)c(OC)c1)c1cccc(OCC(=O)NCCNC(=O)COc2cccc([C@@H](CCc3ccc(OC)c(OC)c3)OC(=O)[C@@H]3CCCCN3C(=O)[C@@H](CC)c3cc(OC)c(OC)c(OC)c3)c2)c1)c1cc(OC)c(OC)c(OC)c1 [rimiducid] | directly proportional to dose | approximately 18% | ~7% | ~1% | up to 1 mg/kg | 10 to 1275 ng/mL | 10 to 100 nM | 16 to 160 µg/L | approximately 700 pM |  |  |  |  |  |  |  |  |  |
| CC[C@H](C(=O)N1CCCC[C@H]1C(=O)O[C@H](CCc1ccc(OC)c(OC)c1)c1cccc(OCCN(C)CCN(C)CCOc2cccc([C@@H](CCc3ccc(OC)c(OC)c3)OC(=O)[C@@H]3CCCCN3C(=O)[C@@H](CC)c3cc(OC)c(OC)c(OC)c3)c2)c1)c1cc(OC)c(OC)c(OC)c1.O=S(=O)(O)c1ccccc1 |  |  |  |  |  |  |  |  |  | 4.3 | 92.2% | 91.7% | 92.2% | 92.2% | 91.5% | 90.6% | 91.2% | 90. % |
| CC[C@H](C(=O)N1CCCC[C@H]1C(=O)O[C@H](CCc1ccc(OC)c(OC)c1)c1cccc(OCCN(C)CCN(C)CCOc2cccc([C@@H](CCc3ccc(OC)c(OC)c3)OC(=O)[C@@H]3CCCCN3C(=O)[C@@H](CC)c3cc(OC)c(OC)c(OC)c3)c2)c1)c1cc(OC)c(OC)c(OC)c1.Cl [Compound A.2] |  |  |  |  |  |  |  |  |  | 2.9 | 97.3% | 96.7% | 97.2% | 96.9% | 96.3% | 94.8% | 95.6% | 94.4% |
| CC[C@H](C(=O)N1CCCC[C@H]1C(=O)O[C@H](CCc1ccc(OC)c(OC)c1)c1cccc(OCCN(C)CCN(C)CCOc2cccc([C@@H](CCc3ccc(OC)c(OC)c3)OC(=O)[C@@H]3CCCCN3C(=O)[C@@H](CC)c3cc(OC)c(OC)c(OC)c3)c2)c1)c1cc(OC)c(OC)c(OC)c1.O=S(=O)(O)O [Sulphate] |  |  |  |  |  |  |  |  |  | 3.06 | 96.2% | 95.0% | 95.9% | 95.6% | 95.3% | 94.6% | 88.2% | 85.4% |
| CC[C@H](C(=O)N1CCCC[C@H]1C(=O)O[C@H](CCc1ccc(OC)c(OC)c1)c1cccc(OCCN(C)CCN(C)CCOc2cccc([C@@H](CCc3ccc(OC)c(OC)c3)OC(=O)[C@@H]3CCCCN3C(=O)[C@@H](CC)c3cc(OC)c(OC)c(OC)c3)c2)c1)c1cc(OC)c(OC)c(OC)c1.O=P(O)(O)O [Compound A.1] |  |  |  |  |  |  |  |  |  | 3.9 | 96.2% | 95.9% | 95.6% | 95.9% | 94.9% | 93.3% | 85.2% | 77.7% |
| CC[C@H](C(=O)N1CCCC[C@H]1C(=O)O[C@H](CCc1ccc(OC)c(OC)c1)c1cccc(OCCN(C)CCN(C)CCOc2cccc([C@@H](CCc3ccc(OC)c(OC)c3)OC(=O)[C@@H]3CCCCN3C(=O)[C@@H](CC)c3cc(OC)c(OC)c(OC)c3)c2)c1)c1cc(OC)c(OC)c(OC)c1.O=C(O)/C=C/C(=O)O [Fumarate] |  |  |  |  |  |  |  |  |  | 3.4 | 97.5% | 97.1% | 97.2% | 96.8% | 96.6% | 95.8% | 87.5% | 81.2% |
